Results published in PubChem BioAssay (NCI).
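Briefly, cells in 96-well plates were exposed to five compound concentrations for 48 h, and endpoints were estimated by linear interpolation. GI50 = concentration required for 50% inhibition of growth. The concentration for full growth arrest is given as TGI.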

Experiments:
Experiment in all cases: DTP human tumour cell line panel, 48 h
[1] = tested on: MOLT-4 leukemia
[2] = tested on: CCRF-CEM leukemia
[3] = tested on: UACC-257 melanoma
[4] = tested on: CAKI-1 renal
[5] = tested on: K-562 leukemia
[6] = tested on: NCI-H23 lung
[7] = tested on: SF-539 CNS
[8] = tested on: SK-MEL-28 melanoma
[9] = tested on: ACHN renal
[10] = tested on: HT29 colon
[11] = tested on: MDA-MB-435
[12] = tested on: SF-295 CNS
[13] = tested on: RXF 393 renal
[14] = tested on: A498 renal
[15] = tested on: NCI-H522 lung
[16] = tested on: SNB-19 CNS
[17] = tested on: IGROV1 ovarian
[18] = tested on: U251 CNS
[19] = tested on: UO-31 renal
[20] = tested on: 786-0 renal
[21] = tested on: MDA-MB-231 breast
[22] = tested on: SNB-75 CNS
[23] = tested on: OVCAR-4 ovarian
[24] = tested on: COLO 205 colon
[25] = tested on: NCI/ADR-RES ovarian
[26] = tested on: HCT-15 colon
[27] = tested on: M14 melanoma
[28] = tested on: DU-145 prostate
[29] = tested on: SK-MEL-2 melanoma
[30] = tested on: HOP-92 NSCLC
[31] = tested on: SW-620 colon
[32] = tested on: NCI-H460 lung
[33] = tested on: SK-MEL-5 melanoma
[34] = tested on: MCF7 breast
[35] = tested on: OVCAR-3 ovarian
[36] = tested on: TK-10 renal
[37] = tested on: OVCAR-8 ovarian
[38] = tested on: HL-60(TB) leukemia
[39] = tested on: SR leukemia
[40] = tested on: MALME-3M melanoma
[41] = tested on: HCT-116 colon
[42] = tested on: KM12 colon
[43] = tested on: EKVX NSCLC
[44] = tested on: PC-3 prostate
[45] = tested on: BT-549 breast
[46] = tested on: A549 NSCLC
[47] = tested on: HS 578T breast
[48] = tested on: SF-268 CNS
[49] = tested on: HCC-2998 colon
[50] = tested on: SK-OV-3 ovarian
[51] = tested on: RPMI-8226 leukemia
[52] = tested on: HOP-62 NSCLC
[53] = tested on: NCI-H226 lung
[54] = tested on: LOX IMVI melanoma
[55] = tested on: OVCAR-5 ovarian
[56] = tested on: SN12C renal
[57] = tested on: T-47D breast

Q: What does the source list for `O=C(/C=C/c1c(-c2ccccc2)[nH]c2ccccc12)S(=O)(=O)c1ccccc1`?
A: GI50 [1]: 4.78 µM; TGI [1]: > 100 µM; GI50 [2]: 5.41 µM; TGI [2]: > 100 µM; GI50 [3]: > 100 µM; TGI [3]: > 100 µM; GI50 [4]: 6.42 µM; TGI [4]: > 100 µM; GI50 [5]: 3.7 µM; TGI [5]: > 100 µM; GI50 [6]: 13.6 µM; TGI [6]: > 100 µM; GI50 [7]: 17.5 µM; TGI [7]: > 100 µM; GI50 [8]: 27.1 µM; TGI [8]: > 100 µM; GI50 [9]: 39.8 µM; TGI [9]: > 100 µM; GI50 [10]: 3.76 µM; TGI [10]: > 100 µM; GI50 [11]: 1.73 µM; TGI [11]: 5.07 µM; GI50 [12]: 0.818 µM; TGI [12]: > 100 µM; GI50 [13]: 9.34 µM; TGI [13]: 67.1 µM; GI50 [14]: 2.2 µM; TGI [14]: 87.8 µM; GI50 [15]: 6.11 µM; TGI [15]: > 100 µM; GI50 [16]: 35.7 µM; TGI [16]: > 100 µM; GI50 [17]: 24.3 µM; TGI [17]: > 100 µM; GI50 [18]: 40.3 µM; TGI [18]: > 100 µM; GI50 [19]: > 100 µM; TGI [19]: > 100 µM; GI50 [20]: 52.6 µM; TGI [20]: > 100 µM; GI50 [21]: 16.6 µM; TGI [21]: > 100 µM; GI50 [22]: 3.96 µM; TGI [22]: > 100 µM; GI50 [23]: 4.48 µM; TGI [23]: > 100 µM; GI50 [24]: 6 µM; TGI [24]: > 100 µM; GI50 [25]: 3.19 µM; TGI [25]: 53.6 µM; GI50 [26]: 6.42 µM; TGI [26]: > 100 µM; GI50 [27]: 5.86 µM; TGI [27]: > 100 µM; GI50 [28]: 7.54 µM; TGI [28]: > 100 µM; GI50 [29]: 78.6 µM; TGI [29]: > 100 µM; GI50 [30]: 16.3 µM; TGI [30]: > 100 µM; GI50 [31]: 5.1 µM; TGI [31]: > 100 µM; GI50 [32]: 3.7 µM; TGI [32]: > 100 µM; GI50 [33]: 4.38 µM; TGI [33]: > 100 µM; GI50 [34]: 3.09 µM; TGI [34]: > 100 µM; GI50 [35]: 4.23 µM; TGI [35]: > 100 µM; GI50 [36]: 74 µM; TGI [36]: > 100 µM; GI50 [37]: 53.6 µM; TGI [37]: > 100 µM; GI50 [38]: 5.6 µM; TGI [38]: 98.7 µM; GI50 [39]: 2.42 µM; TGI [39]: 6.72 µM; GI50 [40]: 8.11 µM; TGI [40]: > 100 µM; GI50 [41]: 4.81 µM; TGI [41]: > 100 µM; GI50 [42]: 2.03 µM; TGI [42]: > 100 µM; GI50 [43]: 4.37 µM; TGI [43]: > 100 µM; GI50 [44]: 8.15 µM; TGI [44]: > 100 µM; GI50 [45]: 5.33 µM; TGI [45]: > 100 µM; GI50 [46]: 24.9 µM; TGI [46]: > 100 µM; GI50 [47]: 10.1 µM; TGI [47]: > 100 µM; GI50 [48]: 6.24 µM; TGI [48]: > 100 µM; GI50 [49]: 17.5 µM; TGI [49]: > 100 µM; GI50 [50]: 23.5 µM; TGI [50]: > 100 µM; GI50 [51]: 13.3 µM; TGI [51]: > 100 µM; GI50 [52]: 29.9 µM; TGI [52]: > 100 µM; GI50 [53]: > 100 µM; TGI [53]: > 100 µM; GI50 [54]: > 100 µM; TGI [54]: > 100 µM; GI50 [55]: > 100 µM; TGI [55]: > 100 µM; GI50 [56]: > 100 µM; TGI [56]: > 100 µM; GI50 [57]: 2.5 µM; TGI [57]: > 100 µM
